{"source": "ChEMBL document CHEMBL1148238", "about": "“Design, synthesis and cytotoxicity of 7-deoxy aryl discodermolide analogues” (Bioorg Med Chem Lett, 2004)", "assay_type_in_all_cases": "functional, cell-based", "details_in_all_cases": "Homo sapiens", "key": {"SK-OV-3": {"test_system": "SK-OV-3", "experiment": "Cytotoxicity of compound against SKOV-3 cell line"}, "MCF7 [1]": {"test_system": "MCF7", "experiment": "Cytotoxicity of compound against MCF-7/ADR cell line"}, "MCF7 [2]": {"test_system": "MCF7", "experiment": "Cytotoxicity of compound against MCF-7 cell line"}, "A549": {"test_system": "A549", "experiment": "Cytotoxicity of compound against A549 cell line"}}, "data": [{"smiles": "C=C/C=C\\[C@H](C)[C@H](OC(N)=O)[C@@H](C)[C@H](O)[C@@H](C)C/C(C)=C\\[C@H](C)[C@@H](O)[C@@H](C)/C=C\\CCc1cccc(Cl)c1", "values": [{"measurement": "IC50", "setting": "SK-OV-3", "value": 380, "unit": "nM"}, {"measurement": "IC50", "setting": "MCF7 [1]", "value": 650, "unit": "nM"}, {"measurement": "IC50", "setting": "MCF7 [2]", "value": 400, "unit": "nM"}, {"measurement": "IC50", "setting": "A549", "value": 580, "unit": "nM"}]}, {"smiles": "C=C/C=C\\[C@H](C)[C@H](OC(N)=O)[C@@H](C)[C@H](O)[C@@H](C)C/C(C)=C\\[C@H](C)[C@@H](O)[C@@H](C)/C=C\\CCc1cccc(O)c1", "values": [{"measurement": "IC50", "setting": "SK-OV-3", "value": 40, "unit": "nM"}, {"measurement": "IC50", "setting": "MCF7 [1]", "value": 390, "unit": "nM"}, {"measurement": "IC50", "setting": "MCF7 [2]", "value": 130, "unit": "nM"}, {"measurement": "IC50", "setting": "A549", "value": 190, "unit": "nM"}]}, {"smiles": "C=C/C=C\\[C@H](C)[C@H](OC(N)=O)[C@@H](C)[C@H](O)[C@@H](C)C/C(C)=C\\[C@H](C)[C@@H](O)[C@@H](C)/C=C\\CCc1ccc(C)c(O)c1", "values": [{"measurement": "IC50", "setting": "SK-OV-3", "value": 410, "unit": "nM"}, {"measurement": "IC50", "setting": "MCF7 [1]", "value": 4000, "unit": "nM"}, {"measurement": "IC50", "setting": "MCF7 [2]", "value": 770, "unit": "nM"}, {"measurement": "IC50", "setting": "A549", "value": 4000, "unit": "nM"}]}, {"smiles": "C=C/C=C\\[C@H](C)[C@H](OC(N)=O)[C@@H](C)[C@H](O)[C@@H](C)C/C(C)=C\\[C@H](C)[C@@H](O)[C@@H](C)/C=C\\CCc1sccc1C", "values": [{"measurement": "IC50", "setting": "SK-OV-3", "value": 370, "unit": "nM"}, {"measurement": "IC50", "setting": "MCF7 [1]", "value": 620, "unit": "nM"}, {"measurement": "IC50", "setting": "MCF7 [2]", "value": 370, "unit": "nM"}, {"measurement": "IC50", "setting": "A549", "value": 790, "unit": "nM"}]}, {"smiles": "C=C/C=C\\[C@H](C)[C@H](OC(N)=O)[C@@H](C)[C@H](O)[C@@H](C)C/C(C)=C\\[C@H](C)[C@@H](O)[C@@H](C)/C=C\\CCc1cccc(F)c1", "values": [{"measurement": "IC50", "setting": "SK-OV-3", "value": 400, "unit": "nM"}, {"measurement": "IC50", "setting": "MCF7 [1]", "value": 500, "unit": "nM"}, {"measurement": "IC50", "setting": "MCF7 [2]", "value": 370, "unit": "nM"}, {"measurement": "IC50", "setting": "A549", "value": 650, "unit": "nM"}]}, {"smiles": "C=C/C=C\\[C@H](C)[C@H](OC(N)=O)[C@@H](C)[C@H](O)[C@@H](C)C/C(C)=C\\[C@H](C)[C@@H](O)[C@@H](C)/C=C\\CCc1ccc(C)c(F)c1", "values": [{"measurement": "IC50", "setting": "SK-OV-3", "value": 1000, "unit": "nM"}, {"measurement": "IC50", "setting": "MCF7 [1]", "value": 4000, "unit": "nM"}, {"measurement": "IC50", "setting": "MCF7 [2]", "value": 1000, "unit": "nM"}, {"measurement": "IC50", "setting": "A549", "value": 4000, "unit": "nM"}]}, {"smiles": "C=C/C=C\\[C@H](C)[C@H](OC(N)=O)[C@@H](C)[C@H](O)[C@@H](C)C/C(C)=C\\[C@H](C)[C@@H](O)[C@@H](C)/C=C\\CCc1ccsc1", "values": [{"measurement": "IC50", "setting": "SK-OV-3", "value": 440, "unit": "nM"}, {"measurement": "IC50", "setting": "MCF7 [1]", "value": 4000, "unit": "nM"}, {"measurement": "IC50", "setting": "MCF7 [2]", "value": 850, "unit": "nM"}, {"measurement": "IC50", "setting": "A549", "value": 4000, "unit": "nM"}]}, {"smiles": "C=C/C=C\\[C@H](C)[C@H](OC(N)=O)[C@@H](C)[C@H](O)[C@@H](C)C/C(C)=C\\[C@H](C)[C@@H](O)[C@@H](C)/C=C\\CCc1ccc(Oc2ccccc2)cc1", "values": [{"measurement": "IC50", "setting": "SK-OV-3", "value": 10000, "unit": "nM"}, {"measurement": "IC50", "setting": "MCF7 [1]", "value": 10000, "unit": "nM"}, {"measurement": "IC50", "setting": "MCF7 [2]", "value": 4000, "unit": "nM"}, {"measurement": "IC50", "setting": "A549", "value": 10000, "unit": "nM"}]}, {"smiles": "C=C/C=C\\[C@H](C)[C@H](OC(N)=O)[C@@H](C)[C@H](O)[C@@H](C)C/C(C)=C\\[C@H](C)[C@@H](O)[C@@H](C)/C=C\\CCc1cc(O)cc(O)c1", "values": [{"measurement": "IC50", "setting": "SK-OV-3", "value": 40, "unit": "nM"}, {"measurement": "IC50", "setting": "MCF7 [1]", "value": "> 1000", "unit": "nM"}, {"measurement": "IC50", "setting": "MCF7 [2]", "value": 160, "unit": "nM"}, {"measurement": "IC50", "setting": "A549", "value": 310, "unit": "nM"}]}, {"smiles": "C=C/C=C\\[C@H](C)[C@H](OC(N)=O)[C@@H](C)[C@H](O)[C@@H](C)C/C(C)=C\\[C@H](C)[C@@H](O)[C@@H](C)/C=C\\CCc1cccc(OC)c1", "values": [{"measurement": "IC50", "setting": "SK-OV-3", "value": 370, "unit": "nM"}, {"measurement": "IC50", "setting": "MCF7 [1]", "value": 500, "unit": "nM"}, {"measurement": "IC50", "setting": "MCF7 [2]", "value": 330, "unit": "nM"}, {"measurement": "IC50", "setting": "A549", "value": 600, "unit": "nM"}]}, {"smiles": "C=C/C=C\\[C@H](C)[C@H](OC(N)=O)[C@@H](C)[C@H](O)[C@@H](C)C/C(C)=C\\[C@H](C)[C@@H](O)[C@@H](C)/C=C\\CCc1cccc(O)c1C", "values": [{"measurement": "IC50", "setting": "SK-OV-3", "value": 270, "unit": "nM"}, {"measurement": "IC50", "setting": "MCF7 [1]", "value": 1000, "unit": "nM"}, {"measurement": "IC50", "setting": "MCF7 [2]", "value": 490, "unit": "nM"}, {"measurement": "IC50", "setting": "A549", "value": 910, "unit": "nM"}]}, {"smiles": "C=C/C=C\\[C@H](C)[C@H](OC(N)=O)[C@@H](C)[C@H](O)[C@@H](C)C/C(C)=C\\[C@H](C)[C@@H](O)[C@@H](C)/C=C\\CCc1ccccc1", "values": [{"measurement": "IC50", "setting": "SK-OV-3", "value": 350, "unit": "nM"}, {"measurement": "IC50", "setting": "MCF7 [1]", "value": 560, "unit": "nM"}, {"measurement": "IC50", "setting": "MCF7 [2]", "value": 480, "unit": "nM"}, {"measurement": "IC50", "setting": "A549", "value": 510, "unit": "nM"}]}, {"smiles": "C=C/C=C\\[C@H](C)[C@H](OC(N)=O)[C@@H](C)[C@H](O)[C@@H](C)C/C(C)=C\\[C@H](C)[C@@H](O)[C@@H](C)/C=C\\CCc1cc(F)cc(F)c1", "values": [{"measurement": "IC50", "setting": "SK-OV-3", "value": 360, "unit": "nM"}, {"measurement": "IC50", "setting": "MCF7 [1]", "value": 2000, "unit": "nM"}, {"measurement": "IC50", "setting": "MCF7 [2]", "value": 600, "unit": "nM"}, {"measurement": "IC50", "setting": "A549", "value": 1000, "unit": "nM"}]}]}
